Activity calls are given as the source filed them. The rule behind the calls is not given here.
System: VEGF-stimulated ADSC/ECFC co-culture, nuclear area imaging
Experiment: nuclear area loss in endothelial-stromal co-culture, dose response, cell-based, VEGF stimulation, IC50 (AID 1117324)

Structure (SMILES) | IC50
CC(C)C[C@H](NC(=O)[C@H](CCc1ccccc1)NC(=O)CN1CCOCC1)C(=O)N[C@@H](Cc1ccccc1)C(=O)N[C@@H](CC(C)C)C(=O)[C@@]1(C)CO1 | 0.285 µM
CCN[C@@H](C)Cc1cccc(C(F)(F)F)c1 | > 10 µM (inactive)
CC1CCC(C(C)C)C(OC(=O)c2ccccc2O)C1 (stereo unspecified) | > 10 µM (inactive)
COc1ccc2c(c1)c1c3n2CCN(C)C3=NCC1 | > 10 µM (inactive)
CC(C)(C)CC(C)(C)c1ccc(O)cc1 | 9.11 µM (inactive)
Nc1nc(=O)n([C@@H]2O[C@H](CO)[C@@H](O)[C@@H]2F)cc1I | > 10 µM (inactive)
Cc1cc(OCCOCC[N+](C)(C)Cc2ccccc2)ccc1C(C)(C)CC(C)(C)C | 8.7 µM (inactive)
CC(C)(C)C(=O)OCOP(=O)(COCCn1cnc2c(N)ncnc21)OCOC(=O)C(C)(C)C | > 10 µM (inactive)
C[C@]12CC[C@@H]3c4ccc(O)cc4CC[C@H]3[C@@H]1CC[C@@H]2OC(=O)CCC1CCCC1 | > 10 µM (inactive)
CN(C)C(=S)SSC(=S)N(C)C | > 10 µM (inactive)
COP(=S)(OC)Oc1ccc(Sc2ccc(OP(=S)(OC)OC)cc2)cc1 | > 10 µM (inactive)
CCCCCCCCCCCCNCCNCCNCC(=O)O | > 10 µM (inactive)
CCc1c2c(nc3ccc(OC(=O)N4CCC(N5CCCCC5)CC4)cc13)-c1cc3c(c(=O)n1C2)COC(=O)[C@]3(O)CC | 8.12 µM (inactive)
O=[N+]([O-])c1ccc(Oc2ccc(N=C=S)cc2)cc1 | > 10 µM (inactive)
COc1cc([C@@H]2c3cc4c(cc3[C@@H](O[C@@H]3O[C@@H]5CO[C@@H](C)O[C@@H]5[C@H](O)[C@@H]3O)[C@H]3COC(=O)[C@H]23)OCO4)cc(OC)c1O | 0.967 µM
CCOC(=O)C1=C(C)NC(C)=C(C(=O)OCC)C1c1ccccc1/C=C/C(=O)OC(C)(C)C | > 10 µM (inactive)
COc1cccc2c1C(=O)c1c(O)c3c(c(O)c1C2=O)C[C@@](O)(C(=O)CO)C[C@@H]3O[C@H]1C[C@H](N)[C@H](O[C@@H]2CCCCO2)[C@H](C)O1 | 0.995 µM
CSc1ccc2c(c1)N(CCC1CCCCN1C)c1ccccc1S2 (stereo unspecified) | 9.24 µM (inactive)
CC(C)OC(=O)OCOP(=O)(CO[C@H](C)Cn1cnc2c(N)ncnc21)OCOC(=O)OC(C)C | > 10 µM (inactive)
O=c1c(-c2ccc(O)cc2)coc2cc(O)cc(O)c12 | > 10 µM (inactive)
CCCCCCCCCCCCCCNCCO | 9.19 µM (inactive)
CC(=O)Oc1ccc(C2(c3ccc(OC(C)=O)cc3)Oc3ccccc3NC2=O)cc1 | > 10 µM (inactive)
Cc1nc2ccc(CN(C)c3ccc(C(=O)N[C@@H](CCC(=O)O)C(=O)O)s3)cc2c(=O)[nH]1 | > 10 µM (inactive)

Structure (SMILES) | IC50
Cc1c(O)cccc1C(=O)N[C@@H](CSc1ccccc1)[C@H](O)CN1C[C@H]2CCCC[C@H]2C[C@H]1C(=O)NC(C)(C)C | > 10 µM (inactive)
COCC(=O)O[C@]1(CCN(C)CCCc2nc3ccccc3[nH]2)CCc2cc(F)ccc2[C@@H]1C(C)C | > 10 µM (inactive)
CNC(=O)Oc1cccc2ccccc12 | > 10 µM (inactive)
Cc1cc(OI)c(C(C)C)cc1-c1cc(C(C)C)c(OI)cc1C | > 10 µM (inactive)
CCc1cccc(N(C)C(N)=Nc2cccc3ccccc23)c1 | > 10 µM (inactive)
COc1cc2c(c(OC)c1OC)-c1ccc(OC)c(=O)cc1[C@@H](NC(C)=O)CC2 | > 10 µM (inactive)
ClC1=C(Cl)C2(Cl)C(CBr)CC1(Cl)C2(Cl)Cl (stereo unspecified) | 9.97 µM (inactive)
CC(=O)O[C@@]12CO[C@@H]1C[C@H](O)[C@@]1(C)C(=O)[C@H](O)C3=C(C)[C@@H](OC(=O)[C@H](O)[C@@H](NC(=O)OC(C)(C)C)c4ccccc4)C[C@@](O)([C@@H](OC(=O)c4ccccc4)[C@H]21)C3(C)C | > 10 µM (inactive)
O=C(NC1CCN(CCc2c[nH]c3ccccc23)CC1)c1ccccc1 | > 10 µM (inactive)
Nc1nc(=S)c2[nH]cnc2[nH]1 | > 10 µM (inactive)
NC1=NCC2c3ccccc3Cc3ccccc3N12 (stereo unspecified) | > 10 µM (inactive)
Oc1ccc(/C=C/c2cc(O)cc(O)c2)cc1 | > 10 µM (inactive)
Nc1c2ccccc2nc2ccccc12 | > 10 µM (inactive)
Cc1c(C)c2c(c(C)c1O)CC[C@@](C)(CCC[C@H](C)CCC[C@H](C)CCCC(C)C)O2 | > 10 µM (inactive)
[O-][n+]1ccccc1SSc1cccc[n+]1[O-] | 1.79 µM
CC(C(O)c1ccccc1)N(C)C/C=C/c1ccccc1 (stereo unspecified) | > 10 µM (inactive)
CN1CCCC(CC2c3ccccc3Sc3ccccc32)C1 (stereo unspecified) | > 10 µM (inactive)
CC[C@]12CCCN3CCc4c(n(c5ccccc45)C(=O)C1)[C@@H]32 | > 10 µM (inactive)
C#C[C@]1(OC(C)=O)CC[C@H]2[C@@H]3CCC4=C/C(=N/O)CC[C@@H]4[C@H]3CC[C@@]21CC | > 10 µM (inactive)
Cc1ccc2nc(N)[nH]c(=O)c2c1Sc1ccncc1 | > 10 µM (inactive)
CCCCCCCCCCCCCCCC[N+](C)(C)CC | 7.58 µM (inactive)
C/C(=N\O)[C@@H](C)NCC(C)(C)CN[C@H](C)/C(C)=N/O | > 10 µM (inactive)
CCCCCCCCCCCCCC[N+](C)(C)Cc1ccccc1 | 8.36 µM (inactive)
